Source: PubChem BioAssay (NCI)
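Values below derive from 48-hour exposures of cells grown in 96-well plates, with endpoints linearly interpolated between the two concentrations bracketing the appropriate inhibition level. At the GI50, growth is halved. The concentration for full growth arrest is given as TGI.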

Columns and labels:
Assay in all cases: NCI anticancer screen, dose series, 48 h
[1] = test system: CCRF-CEM leukemia
[2] = test system: T-47D breast
[3] = test system: MOLT-4 leukemia
[4] = test system: MDA-MB-231 breast
[5] = test system: HOP-92 NSCLC
[6] = test system: TK-10 renal
[7] = test system: A549 NSCLC
[8] = test system: U251 CNS
[9] = test system: NCI/ADR-RES ovarian
[10] = test system: MCF7 breast
[11] = test system: OVCAR-5 ovarian
[12] = test system: MDA-MB-435
[13] = test system: CAKI-1 renal
[14] = test system: COLO 205 colon
[15] = test system: LOX IMVI melanoma
[16] = test system: RXF 393 renal
[17] = test system: SN12C renal
[18] = test system: SNB-19 CNS
[19] = test system: SK-MEL-2 melanoma
[20] = test system: M14 melanoma
[21] = test system: SR leukemia
[22] = test system: HS 578T breast
[23] = test system: SF-295 CNS
[24] = test system: ACHN renal
[25] = test system: SNB-75 CNS
[26] = test system: 786-0 renal
[27] = test system: HCC-2998 colon
[28] = test system: BT-549 breast
[29] = test system: SF-539 CNS
[30] = test system: NCI-H226 lung
[31] = test system: A498 renal
[32] = test system: HCT-15 colon
[33] = test system: PC-3 prostate
[34] = test system: RPMI-8226 leukemia
[35] = test system: SK-MEL-28 melanoma
[36] = test system: NCI-H23 lung
[37] = test system: NCI-H460 lung
[38] = test system: K-562 leukemia
[39] = test system: UACC-62 melanoma
[40] = test system: OVCAR-8 ovarian
[41] = test system: SW-620 colon
[42] = test system: HL-60(TB) leukemia
[43] = test system: MALME-3M melanoma
[44] = test system: EKVX NSCLC
[45] = test system: DU-145 prostate
[46] = test system: HCT-116 colon
[47] = test system: SK-MEL-5 melanoma
[48] = test system: OVCAR-3 ovarian
[49] = test system: KM12 colon
[50] = test system: SK-OV-3 ovarian
[51] = test system: UO-31 renal
[52] = test system: HT29 colon
[53] = test system: SF-268 CNS
[54] = test system: NCI-H522 lung
[55] = test system: IGROV1 ovarian
[56] = test system: HOP-62 NSCLC
[57] = test system: UACC-257 melanoma

Work on `Cc1ncc(C(=O)Nc2ccc(CN3CCN(C)CC3)c(C(F)(F)F)c2)cc1C#Cc1cnc(N)c2ccncc12` yielded a GI50 [1] of 2730 nM, a TGI [1] of 10800 nM and a GI50 [2] of 1910 nM. It also gave a TGI [2] of 5880 nM, a GI50 [3] of 389 nM and a TGI [3] of 4620 nM. The GI50 [4] was 526 nM, the TGI [4] was 2020 nM and the GI50 [5] was 615 nM. It also gave a TGI [5] of 3620 nM, a GI50 [6] of 1600 nM and a TGI [6] of 4190 nM. It also gave a GI50 [7] of 1780 nM, a TGI [7] of 4240 nM and a GI50 [8] of 1550 nM. It also gave a TGI [8] of 3350 nM, a GI50 [9] of 1610 nM and a TGI [9] of 5470 nM. It also gave a GI50 [10] of 1350 nM, a TGI [10] of 2900 nM and a GI50 [11] of 1450 nM. It also gave a TGI [11] of 4530 nM, a GI50 [12] of 1430 nM and a TGI [12] of 2860 nM. It also gave a GI50 [13] of 1110 nM, a TGI [13] of 2660 nM and a GI50 [14] of 687 nM. The TGI [14] was 2040 nM, the GI50 [15] was 337 nM and the TGI [15] was 1400 nM. For the same compound, the GI50 [16] was 647 nM, the TGI [16] was 1870 nM and the GI50 [17] was 616 nM. The TGI [17] was 3770 nM, the GI50 [18] was 1800 nM and the TGI [18] was 4620 nM. It also gave a GI50 [19] of 1720 nM, a TGI [19] of 3650 nM and a GI50 [20] of 783 nM. The TGI [20] was 2500 nM, the GI50 [21] was 2330 nM and the TGI [21] was 29800 nM. The GI50 [22] was 984 nM, the TGI [22] was 4650 nM and the GI50 [23] was 1230 nM. It also gave a TGI [23] of 2930 nM, a GI50 [24] of 303 nM and a TGI [24] of 1500 nM. For the same compound, the GI50 [25] was 854 nM, the TGI [25] was 2210 nM and the GI50 [26] was 1350 nM. It also gave a TGI [26] of 3300 nM, a GI50 [27] of 1860 nM and a TGI [27] of 3390 nM. For the same compound, the GI50 [28] was 2850 nM, the TGI [28] was 8330 nM and the GI50 [29] was 548 nM. It also gave a TGI [29] of 1790 nM, a GI50 [30] of 527 nM and a TGI [30] of 14300 nM. It also gave a GI50 [31] of 1350 nM, a TGI [31] of 2920 nM and a GI50 [32] of 1260 nM. It also gave a TGI [32] of 4420 nM, a GI50 [33] of 2410 nM and a TGI [33] of 6760 nM. The GI50 [34] was 2180 nM, the TGI [34] was 5460 nM and the GI50 [35] was 1270 nM. It also gave a TGI [35] of 2820 nM, a GI50 [36] of 1340 nM and a TGI [36] of 3350 nM. It also gave a GI50 [37] of 1380 nM, a TGI [37] of 3020 nM and a TGI [38] of 4480 nM. The GI50 [39] was 1400 nM, the TGI [39] was 2900 nM and the GI50 [40] was 1690 nM. It also gave a TGI [40] of 6550 nM, a GI50 [41] of 1490 nM and a TGI [41] of 3300 nM. For the same compound, the GI50 [42] was 790 nM, the TGI [42] was 4060 nM and the GI50 [43] was 361 nM. The TGI [43] was 1590 nM, the GI50 [44] was 1140 nM and the TGI [44] was 3380 nM. The GI50 [45] was 1100 nM, the TGI [45] was 3270 nM and the GI50 [46] was 1190 nM. It also gave a TGI [46] of 2560 nM, a GI50 [47] of 1600 nM and a TGI [47] of 2980 nM. The GI50 [48] was 1670 nM, the TGI [48] was 5330 nM and the GI50 [49] was 441 nM. It also gave a TGI [49] of 1820 nM, a GI50 [50] of 2790 nM and a TGI [50] of 7130 nM. The GI50 [51] was 457 nM, the TGI [51] was 2270 nM and the GI50 [52] was 432 nM. It also gave a TGI [52] of 2260 nM, a GI50 [53] of 702 nM and a TGI [53] of 2990 nM. It also gave a GI50 [54] of 1140 nM, a TGI [54] of 2500 nM and a GI50 [55] of 152 nM. For the same compound, the TGI [55] was 1420 nM, the GI50 [56] was 1380 nM and the TGI [56] was 3180 nM. The GI50 [57] was 1640 nM and the TGI [57] was 3330 nM.
